Assay results from ChEMBL document CHEMBL5244223, “l,8-Naphthalimide based DNA intercalators and anticancer agents. A systematic review from 2007 to 2017” (Eur J Med Chem, 2018).
pIC50: −log10 of the molar value. Converted amounts (≈) assume the structure as drawn. Each block holds one compound with its values, some of them ahead of it.

Experiments:
SK-MEL-28 = assay: Growth inhibition against human SK-MEL-28 cells at 10 uM incubated for 48 hrs by sulforhodamine B reagent assay; assay type: functional; settings: read-out: GI
MCF7 [1] = assay: Antiproliferative activity against human MCF7 cells assessed as inhibition of cell proliferation; assay type: functional, cell-based
Calf thymus DNA [2] = assay: Binding affinity to calf thymus DNA assessed as DNA intercalation by measuring change in melting temperature by thermal denaturation assay based UV-Vis spectrophotometric analysis; assay type: nucleic-acid assay; settings: Bos taurus
HT-29 = assay: Antiproliferative activity against human HT-29 cells assessed as inhibition of cell proliferation; assay type: functional, cell-based
Calf thymus DNA [3] = assay: Binding affinity to calf thymus DNA assessed as binding constant incubated for 30 mins by fluorescence based EtBr-displacement assay; assay type: nucleic-acid assay; settings: Bos taurus
[4] = Antioxidant activity assessed as hydrogen peroxide free radical scavenging activity incubated for 10 mins; assay type: functional
[5] = Antioxidant activity assessed as DPPH radical scavenging activity incubated for 30 mins by UV-Vis spectrophotometer assay; assay type: functional
MCF7 [6] = assay: Cytotoxicity against human MCF7 cells assessed as inhibition of cell growth incubated for 24 hrs by CCK-8 assay; assay type: functional, cell-based; settings: MCF7, 24 h
Calf thymus DNA [7] = assay: Binding affinity to calf thymus DNA assessed as DNA intercalation by measuring change in melting temperature by thermal denaturation assay; assay type: nucleic-acid assay; settings: Bos taurus
HL-60 = assay: Antiproliferative activity against human HL-60 cells assessed as inhibition of cell growth; assay type: functional, cell-based
A549 [8] = assay: Antiproliferative activity against human A549 cells assessed as inhibition of cell growth; assay type: functional, cell-based
HeLa [9] = assay: Antiproliferative activity against human HeLa cells assessed as inhibition of cell growth; assay type: functional, cell-based
PANC-1 = assay: Cytotoxicity against human PANC-1 cells assessed as inhibition of cell growth incubated for 24 hrs by XTT assay; assay type: functional, cell-based; settings: PANC-1, 24 h
HCT-116 = assay: Cytotoxicity against human HCT-116 cells assessed as inhibition of cell growth incubated for 24 hrs by XTT assay; assay type: functional, cell-based; settings: HCT-116, 24 h
HeLa [10] = assay: Cytotoxicity against human HeLa cells assessed as inhibition of cell growth incubated for 48 hrs by MTT spectrophotometric assay; assay type: functional, cell-based
A549 [11] = assay: Cytotoxicity against human A549 cells assessed as inhibition of cell growth incubated for 48 hrs by MTT spectrophotometric assay; assay type: functional, cell-based; settings: A549, 48 h
Calf thymus DNA [12] = assay: Binding affinity to calf thymus DNA assessed as binding constant by UV-Vis spectroscopic analysis; assay type: nucleic-acid assay; settings: Bos taurus
SGC-7901 [13] = assay: Cytotoxicity against human SGC-7901 cells assessed as inhibition of cell growth incubated for 48 hrs by MTT spectrophotometric assay; assay type: functional, cell-based; settings: SGC-7901, 48 h
HeLa [14] = assay: Antiproliferative activity against human HeLa cells assessed as inhibition of cell proliferation incubated for 48 hrs by MTT assay; assay type: functional, cell-based
MCF7 [15] = assay: Antiproliferative activity against human MCF7 cells assessed as inhibition of cell proliferation incubated for 48 hrs by MTT assay; assay type: functional, cell-based; settings: MCF7, 48 h
SMMC-7721 = assay: Antiproliferative activity against human SMMC-7721 cells assessed as inhibition of cell proliferation incubated for 48 hrs by MTT assay; assay type: functional, cell-based; settings: SMMC-7721, 48 h
MCF7 [16] = assay: Antiproliferative activity against human MCF7 cells assessed as inhibition of cell proliferation incubated for 72 hrs by MTT assay; assay type: functional, cell-based; settings: MCF7, 72 h
Jurkat = assay: Antiproliferative activity against human Jurkat cells assessed as inhibition of cell proliferation incubated for 72 hrs by MTT assay; assay type: functional, cell-based
A549 [17] = assay: Antiproliferative activity against human A549 cells assessed as inhibition of cell proliferation incubated for 72 hrs by MTT assay; assay type: functional, cell-based; settings: A549, 72 h
SGC-7901 [18] = assay: Cytotoxicity against human SGC-7901 cells assessed as inhibition of cell growth by MTT assay; assay type: functional, cell-based
A549 [19] = assay: Cytotoxicity against human A549 cells assessed as inhibition of cell growth by MTT assay; assay type: functional, cell-based
HeLa [20] = assay: Cytotoxicity against human HeLa cells assessed as inhibition of cell growth by MTT assay; assay type: functional, cell-based
Calf thymus DNA [21] = assay: Binding affinity to calf thymus DNA assessed as DNA intercalation by measuring binding constant by fluorescence spectroscopic assay; assay type: nucleic-acid assay; settings: Bos taurus
MCF7 [22] = assay: Cytotoxicity against human MCF7 cells assessed as inhibition of cell growth by MTT assay; assay type: functional, cell-based

SMILES: O=C1c2cccc3cccc(c23)C(=O)N1CCCCN1CCN(CCCCOc2ccc(-c3nc4ccc(N5CCOCC5)cc4[nH]3)cc2)CC1
- inhibition of growth at 10 µM (SK-MEL-28): 50%

- pIC50 (MCF7 [1]): 5.34
- ΔTm (Calf thymus DNA [2]): 3 °C
- pIC50 (HT-29): 5.34
SMILES: CCSc1ccc2c3c(cccc13)C(=O)N(CCCn1cc[n+](C)c1)C2=O

- Kb (Calf thymus DNA [3]): 2.25 10^4/M
- IC50 [4]: 1.17 mg/mL (≈ 3.38 mM)
- IC50 [5]: 1.43 mg/mL (≈ 4.13 mM)
SMILES: COc1cccc(/C=N/N2C(=O)c3cccc4cccc(c34)C2=O)c1O

SMILES: O=C1c2cccc3cccc(c23)C(=O)N1CCCCCN1CCN(CCCCCOc2ccc(-c3nc4ccc(N5CCOCC5)cc4[nH]3)cc2)CC1
- inhibition of growth at 10 µM (SK-MEL-28): 50%

SMILES: CN(C)CCCNc1ccc2c3c(cccc13)C(=O)N(CCCN(C)C)C2=O
- pIC50 (MCF7 [6]): 5.69

- ΔTm (Calf thymus DNA [7]): 11.8 °C
- pIC50 (HL-60): 4.88
- pIC50 (A549 [8]): 4.88
- pIC50 (HeLa [9]): 4.88
SMILES: CN(C)CCN1C(=O)c2cccc3c(NCCNCCNCCNCCN)ccc(c23)C1=O

SMILES: CN(C)CCCN1C(=O)c2cccc3c(NCCNC(=N)N)ccc(c23)C1=O
- pIC50 (MCF7 [6]): 4.98

- ΔTm (Calf thymus DNA [7]): 11.8 °C
- pIC50 (HL-60): 4.88
- pIC50 (A549 [8]): 4.88
- pIC50 (HeLa [9]): 4.88
SMILES: CN(C)CCN1C(=O)c2cccc3c(NCCNCCNCCN)ccc(c23)C1=O

SMILES: CN(C)CCCN1C(=O)c2cccc3c(NCCN)ccc(c23)C1=O
- pIC50 (MCF7 [6]): 4.25

SMILES: CN1CCN(c2ccc3nc(-c4ccc(OCCCCN5CCN(CCCCN6C(=O)c7cccc8cccc(c78)C6=O)CC5)cc4)[nH]c3c2)CC1
- inhibition of growth at 10 µM (SK-MEL-28): 50%

SMILES: CN(C)CCN1C(=O)c2cccc3c(N(C)CCCl)ccc(c23)C1=O
- pIC50 (PANC-1): 5.72
- pIC50 (HCT-116): 5.72

- Kb (Calf thymus DNA [12]): 0.47 10^5/M
SMILES: CN(C)CCN1C(=O)c2cccc3c(N4CCN(CCO)CC4)ccc(c23)C1=O
- pIC50 (HeLa [10]): > 5.15
- pIC50 (A549 [11]): > 5.15
- pIC50 (SGC-7901 [13]): > 5.15

- pIC50 (HeLa [14]): 6.52
- pIC50 (MCF7 [15]): 6.52
- Kb (Calf thymus DNA [12]): 5.1 10^5/M
- pIC50 (SMMC-7721): 6.52
SMILES: CN(C)CCN1C(=O)c2cccc3cc(-n4ccnn4)cc(c23)C1=O

SMILES: COS(=O)(=O)CCCCSc1ccc2c3c(cccc13)C(=O)N(CCN(C)C)C2=O
- pIC50 (PANC-1): 4.93
- pIC50 (HCT-116): 4.93

- pIC50 (MCF7 [1]): 5.34
- ΔTm (Calf thymus DNA [2]): 3 °C
- pIC50 (HT-29): 5.34
SMILES: O=C1c2cccc3cccc(c23)C(=O)N1CCCn1cc[n+](Cc2ccccc2)c1

- pIC50 (MCF7 [16]): 5.25
- pIC50 (Jurkat): 5.25
- pIC50 (A549 [17]): 5.25
SMILES: O=C1c2cccc3cccc(c23)C(=O)N1CC/N=C/c1ccccn1

- Kb (Calf thymus DNA [12]): 0.47 10^5/M
SMILES: CN(C)CCN1C(=O)c2cccc3c(N4CCN(CCCO)CC4)ccc(c23)C1=O
- pIC50 (HeLa [10]): > 5.15
- pIC50 (A549 [11]): > 5.15
- pIC50 (SGC-7901 [13]): > 5.15

- pIC50 (MCF7 [1]): 5.34
- ΔTm (Calf thymus DNA [2]): 3 °C
- pIC50 (HT-29): 5.34
SMILES: C[n+]1ccn(CCCN2C(=O)c3cccc4cccc(c34)C2=O)c1

- Kb (Calf thymus DNA [3]): 3.33 10^4/M
- IC50 [4]: 1.06 mg/mL (≈ 2.94 mM)
- IC50 [5]: 1.28 mg/mL (≈ 3.55 mM)
SMILES: CCOc1cc(/C=N/N2C(=O)c3cccc4cccc(c34)C2=O)ccc1O

- Kb (Calf thymus DNA [21]): 1.8 10^4/M
SMILES: CN(C)CCN1C(=O)c2cccc3c(N4CC[C@H](O)C4)ccc(c23)C1=O
- pIC50 (SGC-7901 [18]): 6.06
- pIC50 (A549 [19]): 6.06
- pIC50 (HeLa [20]): 6.06
- pIC50 (MCF7 [22]): 6.06

- Kb (Calf thymus DNA [21]): 1.8 10^4/M
SMILES: CN(C)CCN1C(=O)c2cccc3c(N4CCC[C@@H]4CO)ccc(c23)C1=O
- pIC50 (SGC-7901 [18]): 6.06
- pIC50 (A549 [19]): 6.06
- pIC50 (HeLa [20]): 6.06
- pIC50 (MCF7 [22]): 6.06

- pIC50 (MCF7 [1]): 5.34
- ΔTm (Calf thymus DNA [2]): 3 °C
- pIC50 (HT-29): 5.34
SMILES: CC[n+]1ccn(CCCN2C(=O)c3cccc4cccc(c34)C2=O)c1

SMILES: CN(C)CCN1C(=O)c2cccc3c(N(CCCl)CCCl)ccc(c23)C1=O
- pIC50 (PANC-1): 5.72
- pIC50 (HCT-116): 5.72

- ΔTm (Calf thymus DNA [7]): 11.8 °C
- pIC50 (HL-60): 4.88
- pIC50 (A549 [8]): 5.50
- pIC50 (HeLa [9]): 4.88
SMILES: CN(C)CCN1C(=O)c2cccc3c(NCCNCCN)ccc(c23)C1=O
